Among the data in patent US8541464B2, “Treatment of atrial fibrillation” (HUYA Biosciences International LLC, priority 2009, dated 2013) are pro-arrhythmic activity, IC50 and defibrillation threshold values, retold here.

The subject of one data set is rabbit ventricular wedge. Particulars: sulcardine and salts; cited from earlier work.
In another data set the test system is post-MI conscious canine. Particulars: sulcardine and salts; cited from earlier work.
Data set [1] concerns the target T1, Fast Na (Homo sapiens, UniProt Q14524).
T1 construct: in isolated atrial cardiomyocytes; endogenous in cells; host or cells: isolated human atrial cardiomyocytes
The data set is described as follows: Ion channel profiling in isolated atrial cardiomyocytes. Type of data set: cell-based. The note with it: Human/atria isolated atrial cardiomyocytes.

Data set [2] concerns Ito. Described as above. Type of data set: cell-based. The note with it: Rabbit/atria isolated atrial cardiomyocytes.
The test system of another data set is post-MI canine. The note with it: sulcardine and salts; cited from earlier work.
In data set [3] the test system is ion channels in human atrial cardiomyocytes. Particulars: sulcardine and its salts, in vitro, reported; cited from earlier work.
The target of data set [4] is T2, Ito (Homo sapiens, UniProt Q9UK17).
T2 construct: in isolated atrial cardiomyocytes; endogenous in cells; host or cells: isolated human atrial cardiomyocytes
In words: Ion channel profiling in isolated atrial cardiomyocytes. The data set is classed as cell-based. The note with it: Human/atria isolated atrial cardiomyocytes.

Another data set relates to IKach. Described as above. Particulars: Rabbit/atria isolated atrial cardiomyocytes. The data set is classed as cell-based.
A further data set has as its target T3, IKur (Homo sapiens, UniProt P22460).
T3 construct: in isolated atrial cardiomyocytes; endogenous in cells; host or cells: isolated human atrial cardiomyocytes
The data set is described as above. The data set is classed as cell-based. The note with it: Human/atria isolated atrial cardiomyocytes.

The subject of data set [5] is Fast Na. The data set is described as above. The data set is classed as cell-based. Particulars: Rabbit/atria isolated atrial cardiomyocytes.
The next data set has as its target T4, Slow Na (Homo sapiens, UniProt Q14524).
T4 construct: in isolated atrial cardiomyocytes; endogenous in cells; host or cells: isolated human atrial cardiomyocytes
The description is as above. Type of data set: cell-based. The note with it: Human/atria isolated atrial cardiomyocytes.

For data set [6], the target named is T5, IKr (Homo sapiens, UniProt Q12809).
T5 construct: in isolated atrial cardiomyocytes; endogenous in cells; host or cells: isolated human atrial cardiomyocytes
The description is as above. Type of data set: cell-based. The note with it: Human/atria isolated atrial cardiomyocytes.

In data set [7] the target is T6, IKr (Oryctolagus cuniculus, UniProt Q8WNY2).
T6 construct: in isolated atrial cardiomyocytes; endogenous in cells; host or cells: isolated rabbit atrial cardiomyocytes
The description is as above. The data set is classed as cell-based. Particulars: Rabbit/atria isolated atrial cardiomyocytes.

The target of a further data set is T7, L-Ca (Oryctolagus cuniculus, UniProt P15381).
T7 construct: in isolated atrial cardiomyocytes; endogenous in cells; host or cells: isolated rabbit atrial cardiomyocytes
Described as above. Type of data set: cell-based. Particulars: Rabbit/atria isolated atrial cardiomyocytes.

T2 sequence (Q9UK17 whole entry): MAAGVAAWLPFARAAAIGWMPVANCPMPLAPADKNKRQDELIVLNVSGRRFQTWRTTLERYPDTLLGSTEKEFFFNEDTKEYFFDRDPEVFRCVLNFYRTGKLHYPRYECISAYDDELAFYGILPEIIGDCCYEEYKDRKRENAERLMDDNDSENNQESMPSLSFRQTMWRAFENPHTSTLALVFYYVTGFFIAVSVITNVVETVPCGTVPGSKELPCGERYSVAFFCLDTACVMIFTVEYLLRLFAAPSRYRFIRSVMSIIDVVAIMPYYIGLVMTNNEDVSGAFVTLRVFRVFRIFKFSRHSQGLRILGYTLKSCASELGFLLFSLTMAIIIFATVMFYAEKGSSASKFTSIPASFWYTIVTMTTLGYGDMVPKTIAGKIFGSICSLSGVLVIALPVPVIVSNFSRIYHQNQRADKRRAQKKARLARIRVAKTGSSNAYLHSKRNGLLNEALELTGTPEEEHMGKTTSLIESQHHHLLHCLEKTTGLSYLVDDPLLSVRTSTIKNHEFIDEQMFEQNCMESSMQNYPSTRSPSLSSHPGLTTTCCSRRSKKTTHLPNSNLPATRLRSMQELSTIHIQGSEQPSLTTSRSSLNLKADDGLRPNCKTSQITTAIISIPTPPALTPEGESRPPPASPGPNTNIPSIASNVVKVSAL
T2 sequence (Q9NS61 whole entry partner): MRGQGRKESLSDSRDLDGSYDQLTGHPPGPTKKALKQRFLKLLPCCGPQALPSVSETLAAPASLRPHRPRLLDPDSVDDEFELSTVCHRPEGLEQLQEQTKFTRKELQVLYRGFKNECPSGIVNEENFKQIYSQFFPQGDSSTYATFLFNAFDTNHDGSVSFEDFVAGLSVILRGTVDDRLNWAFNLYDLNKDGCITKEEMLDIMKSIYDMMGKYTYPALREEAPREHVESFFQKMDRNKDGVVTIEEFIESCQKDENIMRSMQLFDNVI
T5 sequence (Q12809 whole entry): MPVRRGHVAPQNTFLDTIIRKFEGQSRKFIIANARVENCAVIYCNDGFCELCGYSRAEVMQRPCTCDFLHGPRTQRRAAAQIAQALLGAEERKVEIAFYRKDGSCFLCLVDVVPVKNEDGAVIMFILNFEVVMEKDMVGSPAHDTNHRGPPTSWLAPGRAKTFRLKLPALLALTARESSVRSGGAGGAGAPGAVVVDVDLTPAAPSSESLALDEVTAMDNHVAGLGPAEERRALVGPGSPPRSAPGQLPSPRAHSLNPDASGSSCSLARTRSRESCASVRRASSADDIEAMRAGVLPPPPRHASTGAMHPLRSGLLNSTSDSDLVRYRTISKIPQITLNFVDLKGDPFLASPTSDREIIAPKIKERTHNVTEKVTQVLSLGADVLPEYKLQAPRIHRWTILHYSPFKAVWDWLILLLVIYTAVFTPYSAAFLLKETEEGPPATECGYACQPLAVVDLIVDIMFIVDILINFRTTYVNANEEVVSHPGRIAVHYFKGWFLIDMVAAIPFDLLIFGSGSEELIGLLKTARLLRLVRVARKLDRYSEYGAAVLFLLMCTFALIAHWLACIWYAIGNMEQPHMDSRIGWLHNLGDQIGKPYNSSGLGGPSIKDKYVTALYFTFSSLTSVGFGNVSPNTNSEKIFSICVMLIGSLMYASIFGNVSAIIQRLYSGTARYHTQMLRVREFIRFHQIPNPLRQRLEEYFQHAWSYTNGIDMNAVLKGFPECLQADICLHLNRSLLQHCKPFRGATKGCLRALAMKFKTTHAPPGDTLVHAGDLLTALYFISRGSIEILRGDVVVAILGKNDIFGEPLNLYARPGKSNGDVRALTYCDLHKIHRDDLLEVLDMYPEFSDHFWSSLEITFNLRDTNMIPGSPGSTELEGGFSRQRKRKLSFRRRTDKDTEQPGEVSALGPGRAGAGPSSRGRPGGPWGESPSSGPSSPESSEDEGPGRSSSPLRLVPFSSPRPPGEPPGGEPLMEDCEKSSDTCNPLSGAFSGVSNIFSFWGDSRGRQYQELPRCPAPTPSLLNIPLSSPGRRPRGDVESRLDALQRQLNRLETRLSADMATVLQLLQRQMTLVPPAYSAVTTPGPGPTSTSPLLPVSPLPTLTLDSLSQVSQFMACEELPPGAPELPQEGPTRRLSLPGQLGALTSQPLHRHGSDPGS
T4 sequence (Q14524 whole entry): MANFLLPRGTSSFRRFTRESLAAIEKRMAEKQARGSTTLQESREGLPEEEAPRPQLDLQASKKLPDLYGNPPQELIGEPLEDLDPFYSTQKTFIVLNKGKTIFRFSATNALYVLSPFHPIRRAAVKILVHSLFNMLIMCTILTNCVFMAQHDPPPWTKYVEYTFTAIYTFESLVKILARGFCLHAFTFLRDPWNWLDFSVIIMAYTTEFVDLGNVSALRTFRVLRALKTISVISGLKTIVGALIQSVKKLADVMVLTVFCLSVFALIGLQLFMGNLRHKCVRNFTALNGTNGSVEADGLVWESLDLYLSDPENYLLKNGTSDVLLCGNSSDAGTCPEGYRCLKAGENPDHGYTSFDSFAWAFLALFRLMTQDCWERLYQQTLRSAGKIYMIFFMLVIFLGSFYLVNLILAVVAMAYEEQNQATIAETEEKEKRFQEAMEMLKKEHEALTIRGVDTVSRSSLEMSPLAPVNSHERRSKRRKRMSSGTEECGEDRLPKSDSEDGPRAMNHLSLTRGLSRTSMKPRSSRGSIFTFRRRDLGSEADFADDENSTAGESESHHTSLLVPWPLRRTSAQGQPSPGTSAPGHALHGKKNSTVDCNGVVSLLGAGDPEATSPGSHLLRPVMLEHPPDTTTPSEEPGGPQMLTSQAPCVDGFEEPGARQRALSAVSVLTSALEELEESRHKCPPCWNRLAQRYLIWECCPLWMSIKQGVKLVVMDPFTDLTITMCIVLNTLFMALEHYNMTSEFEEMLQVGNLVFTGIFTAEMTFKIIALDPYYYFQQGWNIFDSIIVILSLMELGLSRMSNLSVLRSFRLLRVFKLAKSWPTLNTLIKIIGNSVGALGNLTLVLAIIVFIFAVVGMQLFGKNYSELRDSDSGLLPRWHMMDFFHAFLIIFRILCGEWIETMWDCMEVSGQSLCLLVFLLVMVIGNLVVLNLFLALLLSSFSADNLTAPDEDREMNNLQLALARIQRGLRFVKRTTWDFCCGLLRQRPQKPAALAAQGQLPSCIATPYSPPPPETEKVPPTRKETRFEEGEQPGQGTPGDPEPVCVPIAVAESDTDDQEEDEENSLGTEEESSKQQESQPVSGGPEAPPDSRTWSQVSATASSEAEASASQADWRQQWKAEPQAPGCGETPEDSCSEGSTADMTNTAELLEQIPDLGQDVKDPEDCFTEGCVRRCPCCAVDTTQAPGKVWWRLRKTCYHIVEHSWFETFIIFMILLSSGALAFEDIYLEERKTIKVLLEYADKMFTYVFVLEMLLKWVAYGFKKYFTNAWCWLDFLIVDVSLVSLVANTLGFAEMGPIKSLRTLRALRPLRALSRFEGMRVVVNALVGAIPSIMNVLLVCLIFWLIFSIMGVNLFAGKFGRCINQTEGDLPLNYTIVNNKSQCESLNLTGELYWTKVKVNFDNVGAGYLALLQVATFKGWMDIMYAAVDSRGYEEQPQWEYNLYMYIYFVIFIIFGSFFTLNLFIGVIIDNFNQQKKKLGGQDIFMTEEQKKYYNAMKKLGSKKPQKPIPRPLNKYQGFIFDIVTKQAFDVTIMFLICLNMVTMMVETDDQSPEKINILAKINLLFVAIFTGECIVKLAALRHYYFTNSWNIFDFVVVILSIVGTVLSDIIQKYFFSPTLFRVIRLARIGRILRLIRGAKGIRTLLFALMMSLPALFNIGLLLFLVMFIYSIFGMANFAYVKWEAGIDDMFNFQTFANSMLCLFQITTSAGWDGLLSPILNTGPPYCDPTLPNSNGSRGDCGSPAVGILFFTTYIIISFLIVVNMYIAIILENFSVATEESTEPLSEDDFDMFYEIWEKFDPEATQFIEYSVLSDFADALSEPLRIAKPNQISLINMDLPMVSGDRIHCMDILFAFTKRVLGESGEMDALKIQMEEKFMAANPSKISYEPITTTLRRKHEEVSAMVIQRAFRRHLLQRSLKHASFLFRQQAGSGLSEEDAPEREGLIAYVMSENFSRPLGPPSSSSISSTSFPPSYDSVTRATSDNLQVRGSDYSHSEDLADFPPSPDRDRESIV
T3 sequence (P22460 whole entry): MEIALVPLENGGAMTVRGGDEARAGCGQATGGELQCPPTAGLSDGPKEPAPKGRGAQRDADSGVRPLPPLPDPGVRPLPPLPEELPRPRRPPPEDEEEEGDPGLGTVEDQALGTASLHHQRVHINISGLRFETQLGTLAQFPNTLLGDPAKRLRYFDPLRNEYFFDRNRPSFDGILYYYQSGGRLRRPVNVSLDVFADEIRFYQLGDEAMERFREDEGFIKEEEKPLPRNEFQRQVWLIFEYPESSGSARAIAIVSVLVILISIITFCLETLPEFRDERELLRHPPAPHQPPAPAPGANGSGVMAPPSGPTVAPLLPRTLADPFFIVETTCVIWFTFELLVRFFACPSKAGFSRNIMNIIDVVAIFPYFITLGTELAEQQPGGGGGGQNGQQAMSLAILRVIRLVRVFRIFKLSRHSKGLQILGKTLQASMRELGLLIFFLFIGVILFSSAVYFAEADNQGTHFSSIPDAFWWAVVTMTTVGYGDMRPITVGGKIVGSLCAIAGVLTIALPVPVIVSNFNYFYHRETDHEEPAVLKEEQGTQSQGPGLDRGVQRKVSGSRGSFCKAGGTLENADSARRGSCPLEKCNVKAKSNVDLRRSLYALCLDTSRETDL

For “4-methoxy-N-(3,5-bis-(1-pyrrolidinyl)-4-hydroxy benzyl)benzene sulfonamide [sulcardine]”, the pro-arrhythmic activity entry in the data set with rabbit ventricular wedge and in the data set on post-MI conscious canine was “lack significant pro-arrhythmic activity” each time. Also, the IC50 at Fast Na [1] was 26 µM; in the data set with Ito [2], 26 µM; in [3] it was 26 to 100 µM; at Ito [4] it was 100 µM; with IKach, 130 µM; at IKur it was greater than 190 µM. The IC50 with Fast Na [5] was determined as 34 µM; on Slow Na, 45 µM; on IKr [6] it was 40 µM; against IKr [7], 61 µM; at L-Ca, 54 µM. Also, the defibrillation threshold entry with post-MI canine is recorded as “do not increase defibrillation threshold”.
